The target of test [1] is T1, HDAC1 (Homo sapiens, UniProt Q13547).
T1 construct: purchased Reaction Biology
In words: HDAC enzymatic assay (Reaction Biology), fluorogenic substrate. Format: biochemical. The method, then: (§1) Compounds 2 and 9 were tested in an enzymatic assay from Reaction Biology® against HDAC isoforms.
(§2) Base Reaction buffer: 50 mM Tris-HCl, pH8.0, 137 mM NaCl, 2.7 mM KCl, and 1 mM MgCl2. Add fresh: 1 mg/ml BSA, 1% DMSO
(§3) Fluorogenic HDAC General Substrate (HDAC1, HDAC2, HDAC3, HDAC6, HDAC10, and HDAC11): 50 μM, Arg-His-Lys-Lys(Ac)-AMC
(§4) 1. Delivered 2X enzyme in wells of reaction plate except in the control wells and added buffer to control wells. 2. Delivered compounds in 100% DMSO into the enzyme mixture by Acoustic technology (Echo550; nanoliter range). Spin down and pre-incubation. 3. Delivered 2X Substrate Mixture (Fluorogenic HDAC Substrate and co-factor if applicable) in all reaction wells to initiate the reaction. Spin and shake. 4. Incubated for 30 min for Class 2A, 1 h for HDAC1, 2, 3, and 6, and 2 h for the rest of HDAC isoforms and SIRTs at 30° C. with seal.
(§5) 5. Added Developer with Trichostatin A (or Nicotinamide for SIRTs) to stop the reaction and to generate fluorescent color. 6. The fluorescence that was generated was detected with excitation (Ex) at […] and emission (Em) at 460 nM by the EnVision Multilabel Plate Reader (PerkinElmer®, Santa Clara, Calif., USA).
(§6) IC50 values were derived from a 10-dose response curve. As shown in Tables 1-2, the addition of a linker and CRBN targeting group altered the isoform selectivity of the SAHA-based degrader compounds.

Test [2] deals with T2, HDAC2 (Homo sapiens, UniProt Q92769).
T2 construct: purchased Reaction Biology
T2 sequence (Q92769 whole entry): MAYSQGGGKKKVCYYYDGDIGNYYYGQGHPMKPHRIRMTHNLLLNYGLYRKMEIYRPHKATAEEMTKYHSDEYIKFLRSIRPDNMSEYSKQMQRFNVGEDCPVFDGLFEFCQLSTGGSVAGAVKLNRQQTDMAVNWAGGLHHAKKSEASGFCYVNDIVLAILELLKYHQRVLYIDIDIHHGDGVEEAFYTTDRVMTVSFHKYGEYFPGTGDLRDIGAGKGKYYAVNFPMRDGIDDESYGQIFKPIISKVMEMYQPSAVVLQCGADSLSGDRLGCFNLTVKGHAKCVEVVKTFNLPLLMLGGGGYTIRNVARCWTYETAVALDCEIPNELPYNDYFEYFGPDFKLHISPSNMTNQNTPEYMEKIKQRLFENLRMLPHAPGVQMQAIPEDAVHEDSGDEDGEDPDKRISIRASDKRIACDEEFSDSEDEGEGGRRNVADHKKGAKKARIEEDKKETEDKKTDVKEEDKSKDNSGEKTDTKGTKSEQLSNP
Described as above. The format is biochemical. The method, then: as §1, §2, §3, §4, §5, §6

The target of test [3] is T3, VHL (Homo sapiens, UniProt P40337).
T3 construct: Cells stably expressing the BRD4BD2-GFP with mCherry reporter (40) were seeded; endogenous in cells
T3 sequence (P40337 whole entry, species assumed): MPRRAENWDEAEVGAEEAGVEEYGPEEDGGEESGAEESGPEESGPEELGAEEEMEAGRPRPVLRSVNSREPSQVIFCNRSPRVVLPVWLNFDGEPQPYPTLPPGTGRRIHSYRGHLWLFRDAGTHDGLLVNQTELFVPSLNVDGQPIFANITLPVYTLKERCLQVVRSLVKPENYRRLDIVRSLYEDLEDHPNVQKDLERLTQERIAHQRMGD
In words: Cellular VHL engagement assay (BRD4BD2-GFP / mCherry reporter cells). The format is cell-based. The following applies: with 250 nM AT1, 5 h. The method, then: Cells stably expressing the BRD4BD2-GFP with mCherry reporter (40) were seeded at 30-50% confluency in 384-well plates with 50 μL per well of FluoroBrite™ DMEM media (Thermo Fisher Scientific, A18967) supplemented with 10% FBS a day before compound treatment. Compounds and 250 nM AT1((2S,4R)-1-(2R)-2-Acetamido-3-[[6-[2-[(6S)-4-(4-chlorophenyl)-2,3,9-trimethyl-6H-thieno[3,2-f][1,2,4]triazolo[4,3-a][1,4]diazepin-6-yl]acetamido]hexyl]thio]-3-methylbutanoyl]-4-hydroxy-N-[4-(4-methylthiazol-5-yl)benzyl)pyrrolidinine-2-carboxamide) were dispensed using a D300e Digital Dispenser (HP), normalized to 0.5% DMSO, and incubated with the cells for 5 h. The assay plate was imaged immediately using an Acumen® High Content Imager (TTP Labtech) with 488 nm and 561 nm lasers in a […] grid per well format. The resulting images were analyzed using CellProfiler™.
A series of image analysis steps (an ‘image analysis pipeline’) was constructed. First, the red and green channels were aligned and cropped to target the middle of each well (to avoid analysis of the heavily clumped cells at the edges). A background illumination function was calculated for both red and green channels of each well individually and subtracted to correct for illumination variations across the 384-well plate from various sources of error. An additional step was then applied to the green channel to suppress the analysis of large auto fluorescent artifacts and enhance the analysis of cell specific fluorescence by way of selecting for objects under a given size (30 A.U.) and with a given shape (speckles). mCherry-positive cells were then identified in the red channel by filtering for objects 8-60 pixels in diameter and by using intensity to distinguish between clumped objects. The green channel was then segmented into GFP positive and negative areas and objects were labeled as GFP positive if at least 40% of it overlapped with a GFP positive area. The fraction of GFP-positive cells/mCherry-positive cells in each well was then calculated, and the green and red images were rescaled for visualization.

The target of test [4] is HDAC3 (Homo sapiens, UniProt O15379). In words: HDAC enzymatic assay (Reaction Biology), fluorogenic substrate. Format: biochemical. More on the design: purchased Reaction Biology. The procedure:
as §1, §2, §3, §4, §5, §6

For test [5], the target named is T4, HDAC6 (Homo sapiens, UniProt Q9UBN7).
T4 sequence (Q9UBN7 1-1215): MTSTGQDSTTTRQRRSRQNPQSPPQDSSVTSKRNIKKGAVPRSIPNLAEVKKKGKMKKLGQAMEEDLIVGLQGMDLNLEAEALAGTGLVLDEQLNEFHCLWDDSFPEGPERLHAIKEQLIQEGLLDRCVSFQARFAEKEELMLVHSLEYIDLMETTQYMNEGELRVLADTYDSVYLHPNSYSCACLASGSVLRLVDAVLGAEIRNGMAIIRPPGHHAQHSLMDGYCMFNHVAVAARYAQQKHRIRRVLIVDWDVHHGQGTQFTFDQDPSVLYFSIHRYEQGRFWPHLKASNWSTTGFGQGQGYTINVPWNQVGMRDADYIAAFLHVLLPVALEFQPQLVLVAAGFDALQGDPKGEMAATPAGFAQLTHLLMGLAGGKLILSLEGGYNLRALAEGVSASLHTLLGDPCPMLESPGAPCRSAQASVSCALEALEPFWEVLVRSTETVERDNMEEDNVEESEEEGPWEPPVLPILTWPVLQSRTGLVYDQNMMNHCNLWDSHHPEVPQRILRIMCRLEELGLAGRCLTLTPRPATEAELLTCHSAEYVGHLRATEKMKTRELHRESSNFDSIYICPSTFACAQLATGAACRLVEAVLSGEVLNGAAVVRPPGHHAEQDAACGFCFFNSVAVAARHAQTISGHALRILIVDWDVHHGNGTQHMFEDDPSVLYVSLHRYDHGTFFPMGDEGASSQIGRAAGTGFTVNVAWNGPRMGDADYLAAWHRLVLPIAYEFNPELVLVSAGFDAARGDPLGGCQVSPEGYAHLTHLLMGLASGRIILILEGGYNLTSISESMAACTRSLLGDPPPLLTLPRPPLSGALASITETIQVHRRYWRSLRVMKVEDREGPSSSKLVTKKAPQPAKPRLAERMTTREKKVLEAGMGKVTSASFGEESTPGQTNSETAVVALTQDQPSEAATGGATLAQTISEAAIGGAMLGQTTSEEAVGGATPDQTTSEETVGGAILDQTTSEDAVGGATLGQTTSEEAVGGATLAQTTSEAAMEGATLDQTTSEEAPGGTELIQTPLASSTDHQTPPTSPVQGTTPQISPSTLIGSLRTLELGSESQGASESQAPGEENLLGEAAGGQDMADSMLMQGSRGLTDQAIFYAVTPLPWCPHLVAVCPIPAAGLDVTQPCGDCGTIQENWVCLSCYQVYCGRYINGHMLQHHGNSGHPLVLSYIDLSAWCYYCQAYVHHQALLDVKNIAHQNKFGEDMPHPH
The description is as above. The format is biochemical. More on the design: purchased Reaction Biology. The procedure: as §1, §2, §3, §4, §5, §6

Test [6] has as its target T5, HDAC8 (Homo sapiens, UniProt Q9BY41).
T5 sequence (Q9BY41 1-377): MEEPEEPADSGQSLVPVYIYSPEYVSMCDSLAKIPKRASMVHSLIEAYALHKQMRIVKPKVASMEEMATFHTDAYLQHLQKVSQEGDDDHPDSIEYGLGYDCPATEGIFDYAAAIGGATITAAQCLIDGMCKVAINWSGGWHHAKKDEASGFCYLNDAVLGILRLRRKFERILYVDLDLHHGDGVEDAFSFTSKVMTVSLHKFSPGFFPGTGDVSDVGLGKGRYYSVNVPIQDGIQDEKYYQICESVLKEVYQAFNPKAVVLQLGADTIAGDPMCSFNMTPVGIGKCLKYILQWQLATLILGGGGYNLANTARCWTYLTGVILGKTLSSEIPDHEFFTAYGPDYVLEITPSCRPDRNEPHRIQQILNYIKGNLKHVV
Put plainly: HDAC enzymatic assay (Reaction Biology), HDAC8 substrate. Set-up: purchased Reaction Biology. The format is biochemical. The procedure:
as §1, §2
(HDAC8 only substrate: 50 μM, Arg-His-Lys(Ac)-Lys(Ac))-AMC
as §4, §5, §6

This note sets out measurements from patent publication US20220401564A1 (DANA-FARBER CANCER INSTITUTE, INC., priority 2019, published 2022).

A word on the IC50: it is the concentration at which inhibition is half-maximal.

T1 sequence (Q13547 whole entry): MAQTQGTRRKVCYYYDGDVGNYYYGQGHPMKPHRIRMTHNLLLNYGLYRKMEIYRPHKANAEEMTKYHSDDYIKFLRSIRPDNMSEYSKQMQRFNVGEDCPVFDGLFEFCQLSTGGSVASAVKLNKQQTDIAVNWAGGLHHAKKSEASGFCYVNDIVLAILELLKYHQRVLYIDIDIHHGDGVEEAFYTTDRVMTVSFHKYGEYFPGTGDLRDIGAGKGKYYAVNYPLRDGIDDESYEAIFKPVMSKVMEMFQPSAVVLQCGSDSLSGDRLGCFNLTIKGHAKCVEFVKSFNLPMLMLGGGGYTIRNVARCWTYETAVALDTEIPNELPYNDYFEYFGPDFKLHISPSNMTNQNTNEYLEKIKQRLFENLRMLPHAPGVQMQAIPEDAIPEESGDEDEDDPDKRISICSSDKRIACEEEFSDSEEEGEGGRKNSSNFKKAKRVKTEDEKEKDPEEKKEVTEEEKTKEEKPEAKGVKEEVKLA
HDAC3, sequence (O15379 whole entry): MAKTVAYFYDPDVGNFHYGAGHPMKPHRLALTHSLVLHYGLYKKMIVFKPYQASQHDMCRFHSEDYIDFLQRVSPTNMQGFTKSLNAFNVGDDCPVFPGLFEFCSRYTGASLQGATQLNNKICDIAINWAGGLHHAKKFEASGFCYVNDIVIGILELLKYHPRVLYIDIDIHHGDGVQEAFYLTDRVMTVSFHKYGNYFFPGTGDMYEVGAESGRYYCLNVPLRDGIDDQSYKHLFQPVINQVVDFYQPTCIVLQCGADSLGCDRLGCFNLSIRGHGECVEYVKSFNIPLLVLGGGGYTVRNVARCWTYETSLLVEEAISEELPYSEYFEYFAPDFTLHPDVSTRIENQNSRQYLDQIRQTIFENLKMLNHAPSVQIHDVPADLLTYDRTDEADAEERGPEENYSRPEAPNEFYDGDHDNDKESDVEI
HDAC3, sequence (Q9Y618 395-489 partner limits assumed): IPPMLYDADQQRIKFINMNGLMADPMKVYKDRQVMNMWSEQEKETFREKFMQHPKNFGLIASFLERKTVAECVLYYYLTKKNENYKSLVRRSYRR

For the molecule `Cc1ncsc1-c1ccc([C@H](C)NC(=O)[C@@H]2C[C@@H](O)CN2C(=O)[C@@H](NC(=O)CCOCCN(CCc2c[nH]c3ccccc23)Cc2ccc(/C=C/C(=O)Nc3ccccc3N)cc2)C(C)(C)C)cc1` [Compound 9, (2S,4R)-1-((S)-2-(3-(2-((2-(1H-indol-3-yl)ethyl)(4-((E)-3-((2-aminophenyl)amino)-3-oxoprop-1-en-1-yl)benzyl)amino)ethoxy)propanamido)-3,3-dimethylbutanoyl)-4-hydroxy-N—((S)-1-(4-(4-methylthiazol-5-yl)phenyl)ethyl)pyrrolidine-2-carboxamide], the “inhibition of HDAC1 deacetylase activity in vitro (in words)” value in test [1] is “moderate inhibition”. In addition, the half-maximal inhibitory concentration (IC50) in test [1] (10-dose response curve, read-out: Compound IC50 (M), HDAC1) was determined as 9.5e-06 M; in test [2] (10-dose response curve, read-out: Compound IC50 (M), HDAC2), 1.15e-05 M; in test [3], 298 µM; in test [4] (10-dose response curve, read-out: Compound IC50 (M), HDAC3) it was 1.12e-05 M. Moreover, the “inhibition of HDAC2 deacetylase activity in vitro (in words)” value in test [2] is recorded as “moderate inhibition”. Further, in test [4], the “inhibition of HDAC3 deacetylase activity in vitro (in words)” value was “moderate inhibition”. Further, the “inhibition of HDAC6 activity in vitro (in words)” value in test [5] was “did not inhibit”. For the same molecule, in test [6], the “inhibition of HDAC8 deacetylase activity in vitro (in words)” value is “did not inhibit”.
